Series [1] deals with mice. The following applies: cited from earlier work.
Series [2] has as its system mice. To be noted: interpreted as skeletal muscle relaxation; cited from earlier work.
In series [3] the test system is anesthetized rats. To be noted: cited from earlier work.
Series [4] concerns rat and guinea pig brain slices. The following applies: cited from earlier work.
In series [5] the test system is carrageenan-induced paw swelling in rats. The series is described as follows: Anti-inflammatory activity, carrageenan paw swelling. In kind it is in vivo, rat. To be noted: po, 10 mg/kg, paw swelling 3 hours after carrageenan, vs vehicle. As to the method: Carrageenan (Type λ) was suspended in sterile PBS at 1% (w/v), autoclaved for 30 minutes, and stored at room temperature. Rats were pretreated with vehicle or AK inhibitor (10 mg/kg) by oral gavage or i.p. administration and the volume of the left hind paw was measured using a water displacement plethysmometer (Stoelting Co., Wood Dale, Ill.). One hour after oral treatment or 30 minutes after i.p. treatment, the rats were briefly anesthetized, and 0.1 ml of the carrageenan solution was injected subcutaneously into the planar surface of the left hind paw. The ensuing paw swelling was measured by plethysmometry after 3 hours. The paw volume in millileters was subtracted from the pre-injection paw volume. Data are presented as the percent inhibition of paw swelling in AK inhibitor treated animals, compared to vehicle treated control animals.
(In general: Carrageenan injected into the paw causes an acute inflammation.)

Series [6] deals with male SA rats. Put plainly: Anticonvulsant activity, maximal electroshock (MES) model, suppression of hind limb tonic extension. The following applies: Rattus norvegicus, 1 h, one hour before seizure testing. The class given is in vivo. For orientation: In the maximal electroshock model the usual endpoint is tonic extension of the hind limbs.
The target in series [7] is T1, partially purified pig heart adenosine kinase (Sus scrofa, UniProt A0A5G2R0F5).
T1 construct: partially purified pig heart adenosine kinase; from tissue; host or cells: pig heart
The series is described as follows: Adenosine kinase (AK) inhibition. The class given is biochemical. The procedure: Adenosine kinase activity was measured essentially as described by Yamada et al. Biochim. Biophys. Acta 660, 36-43 […] with a few minor modifications. Assay mixtures contained 50 mM TRIS-maleate buffer, pH 7.0, 0.1% BSA, 1 mM ATP 1 mM MgCl2, 0.5 μM [U-^14 C]adenosine (400-600 mCi/mmol) and varying duplicate concentrations of inhibitor. The reactions were initiated by addition of approximately 0.1 μU partially purified pig heart adenosine kinase, where one unit is defined as that amount of enzyme required to phosphorylate 1 μmol adenosine per minute. The reactions were incubated for 20 minutes at 37° C. The assay was quenched upon spotting 30 μL aliquots onto 2 cm^2 pieces of Whatman DE81 anion exchange paper. The paper squares were washed for 3 minutes in 6 L distilled/deionized water to remove the unreacted adenosine. […] The amount of ^14 C-AMP was quantified by scintillation counting.

Series [8] in a line: Oral bioavailability in dogs (oral vs intravenous AUC). In kind it is in vivo, dog (female beagles). To be noted: dog, plasma, 10 mg/kg, read-out: % Oral Availability. As to the method: Oral bioavailability was determined by comparing the dose corrected areas under the plasma-concentration time curve (AUC) to infinity for the each tested compound, given orally and intravenously in dogs. […] One dog received this solution at an infusion rate of 0.1 mL/min for 20 minutes. The other dog received a 0.2 mL/in infusion for 10 minutes. […] The plasma was separated within 10 minutes of blood collection and was stored frozen. The plasma concentration of compound was then determined for these IV infusions. […] The plasma concentration of compound was determined for this oral administration. The samples were assayed for intact adenosine kinase inhibitor by high performance liquid chromatography (HPLC). An internal standard was added to each test sample and standard sample. Each was then extracted with 10 volumes of 1% v/v dimethylsulfoxide in acetonitrile. […] The dried residue was reconstituted in mobile phase and the contents were analyzed for the adenosine kinase inhibitor (AKI) on HPLC. […] Pharmacokinetic parameters were calculated from the plasma concentration vs. time data, using standard non-compartmental methods. […] et al., Pharmacokinetics., 2[…]. (1983).

The subject of series [9] is isolated guinea pig hearts. The following applies: cited from earlier work.
For series [10], the system named is rat cardiomyocytes. The following applies: cited from earlier work.
Series [11] relates to ischemic cerebral injury. To be noted: Phillis et al.; cited from earlier work.
The subject of series [12] is dog hearts. The following applies: cited from earlier work.
For series [13], the system named is isolated rat hearts. The following applies: perfused with 5-iodotubercidin alone, cited from earlier work.
Series [14] relates to male SA rats. The series is described as follows: Analgesic activity, tail flick model. The class given is in vivo. To be noted: Rattus norvegicus, po. From the text:
(§1) Ther., 250:3, 915-922 (1989). See also, Life Sciences 51:171-76 (1992). These models measure pain avoidance and tolerance in response to a regulated stimulus, and compare the response of animals before and after they are given test compound.

Series [15] relates to male SA rats. The series is described as follows: Analgesic activity, hot plate model. The class given is in vivo. To be noted: Rattus norvegicus, po.
Source text: as §1

The mark [16] stands for this setting: ip, >5 or <5 = fewer or more than 50% inhibited in initial screen at 5 mg/kg ip.
Where [17] appears, read: po, fasted, read-out: Anticonvulsant ED50 (MES), po.

Like-named read-outs stand apart in the source and are kept apart here.

As usually defined, the ED50 is the dose at which the effect has come halfway, by size or by number of responders. For orientation: IC50 means the point on the concentration scale where inhibition reaches its midpoint. Low values mean greater potency, high ones weaker potency.

T1 sequence (A0A5G2R0F5 1-362): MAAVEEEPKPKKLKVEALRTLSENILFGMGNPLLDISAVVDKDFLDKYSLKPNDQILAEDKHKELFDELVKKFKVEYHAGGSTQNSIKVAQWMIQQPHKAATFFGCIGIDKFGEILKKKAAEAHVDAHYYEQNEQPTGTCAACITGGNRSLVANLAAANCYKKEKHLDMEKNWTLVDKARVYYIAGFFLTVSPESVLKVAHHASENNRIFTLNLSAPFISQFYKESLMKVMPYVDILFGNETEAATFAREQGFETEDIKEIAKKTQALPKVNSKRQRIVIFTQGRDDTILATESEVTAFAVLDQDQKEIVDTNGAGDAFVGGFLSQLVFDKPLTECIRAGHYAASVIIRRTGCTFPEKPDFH

For the compound `C[C@H]1O[C@@H](n2cc(I)c3c(N)ncnc32)[C@H](O)[C@@H]1O` [5'-deoxy-5-iodotubercidin], in series [1], the hypothermia result is “hypothermia in mice”. Moreover, the “flaccidity and spontaneous locomotor activity” value in series [2] is “pronounced general flaccidity and much-reduced spontaneous locomotor activity in mice”. Further, the “blood pressure and heart rate” value in series [3] was “decrease blood pressure and heart rate in anesthetized rats”. In series [4], the adenosine uptake result is reported as “adenosine uptake was reportedly inhibited”.

For `CCOc1ccc(Nc2ncnc3c2c(-c2ccccc2)cn3[C@@H]2O[C@H](C)[C@@H](O)[C@H]2O)cc1` [compound 28], the “Carrageenan Paw (% inh)” value in [5] was 31.0%. Besides, in series [6] (setting [16]), the ED50 at 5 mg/kg was below 5 mg/kg. Moreover, in series [7], the IC50 is 4 nM.

For `COc1ccc(-c2cn([C@@H]3O[C@H](C)[C@@H](O)[C@H]3O)c3ncnc(Nc4ccc(C(N)=O)cc4)c23)cc1` [compound 31], in series [5], the “Carrageenan Paw (% inh)” value is recorded as -5.8%. Moreover, the ED50 at 5 mg/kg in series [6] (setting [16]) was above 5 mg/kg. Besides, the IC50 in [7] turned out to be 2 nM.

In the case of `C[C@H]1O[C@@H](n2cc(-c3ccccc3)c3c(Nc4ccc(S(N)(=O)=O)cc4)ncnc32)[C@H](O)[C@@H]1O` [compound 34], the “Carrageenan Paw (% inh)” value in series [5] is on record as -0.2%. Besides, in series [6] (setting [16]), the ED50 at 5 mg/kg was 5 mg/kg. In series [7], this compound came in with an IC50 of 5 nM.

As for `C[C@H]1O[C@@H](n2cc(-c3ccccc3)c3c(Nc4ccc(C#N)cc4)ncnc32)[C@H](O)[C@@H]1O` [#21, 4-N-(4-cyanophenyl)amino-5-phenyl-7-(5-deoxy-1-β-D-ribofuranosyl)pyrrolo[2,3-d]pyrimidine], in series [8], the bioavailability amounted to 23%. In [6] (setting [17]), the ED50 was above 20 mg/kg. Also, in [7], the IC50 was determined as 14 nM.

For `NC[C@H]1O[C@@H](n2cnc3c(N)ncnc32)[C@H](O)[C@@H]1O` [5'-amino-5'-deoxyadenosine], the “adenosine release effects without ADA inhibition” value in [9] (absence of ADA inhibition) is on record as “not apparent in the absence of ADA inhibition”. Moreover, in [9] (perfusion medium, in the presence of EHNA), the “increase of adenosine release” value is 15 fold. Further, the “increase in adenosine release” value in series [10] (inhibition of ADA together with adenosine kinase) is on record as 6 fold.

As for `Nc1ncnc2c1c(I)cn2[C@@H]1O[C@H](CO)[C@@H](O)[C@H]1O` [5-iodotubercidin], the “protection against ischemic cerebral injury” value in series [11] is on record as “does not protect against ischemic cerebral injury”. Also, the hypothermia result in series [1] is “hypothermia in mice”. Besides, the “flaccidity and spontaneous locomotor activity” value in series [2] is “pronounced general flaccidity and much-reduced spontaneous locomotor activity in mice”. In addition, the “effects in ischemia and reperfusion model” value in series [12] was “inconsistent effects”. Further, in series [3], the “blood pressure and heart rate” value was “decrease blood pressure and heart rate in anesthetized rats”. Besides, the adenosine uptake result in [4] was “adenosine uptake was reportedly inhibited”. For the same compound, the perfusate adenosine concentration result in series [13] (hypoxic, anoxic or ischemic conditions) is recorded as “no increase in perfusate adenosine concentration”; in series [13] (normoxic conditions) it was “no increase in perfusate adenosine concentration”.

As for `OC[C@H]1O[C@@H](n2cnc3c2NC=NC[C@H]3O)C[C@@H]1O` [2'-deoxycoformycin], the “effect on adenosine release” value in series [10] (inhibition of adenosine deaminase alone) is “no effect on adenosine release from the cells”.

Turning to `COc1ccc(-c2cn([C@@H]3O[C@H](C)[C@@H](O)[C@H]3O)c3ncnc(Nc4ccc(C#N)cc4)c23)cc1` [#27, 4-N-(4-cyanophenyl)amino-5-(4-methoxyphenyl)-7-(5-deoxy-1-β-D-ribofuranosyl)pyrrolo[2,3-d]pyrimidine], in series [8], the bioavailability is 100%.

For the compound `C[C@H]1O[C@@H](n2cc(-c3ccccc3)c3c(Nc4ccc(F)cc4)ncnc32)[C@H](O)[C@@H]1O` [#1, 4-N-(4-fluorophenyl)amino-5-phenyl-7-(5-deoxy-1-β-D-ribofuranosyl)pyrrolo(2,3-d)pyrimidine], the ED50 in series [14] was below 10 mg/kg; in [6] (ip, >5 or <5 = fewer or more than 50% inhibited in initial screen at 5 mg/kg ip, read-out: Anticonvulsant ED50 (MES), ip), 1.9 mg/kg; in series [6] (setting [17]), 5.1 mg/kg; in series [15], 16.9 mg/kg. Moreover, the “Carrageenan Paw (% inh)” value in series [5] was determined as 0.2%. Besides, half-maximal inhibition in series [7] (IC50) was put at 11 nM.

These data come from US5721356A, “Orally active adenosine kinase inhibitors” (Gensia, Inc., priority 1995, dated 1998).
